Measured values reported in ChEMBL document CHEMBL4507319 (2021).

Experiments:
[1] = molecular target: T1, Discoidin domain-containing receptor 2 (Homo sapiens) (UniProt Q16832); assay: DDR2(h) Eurofins kinase panel; settings: Compound concentration 1.0 uM
T1 sequence (whole entry): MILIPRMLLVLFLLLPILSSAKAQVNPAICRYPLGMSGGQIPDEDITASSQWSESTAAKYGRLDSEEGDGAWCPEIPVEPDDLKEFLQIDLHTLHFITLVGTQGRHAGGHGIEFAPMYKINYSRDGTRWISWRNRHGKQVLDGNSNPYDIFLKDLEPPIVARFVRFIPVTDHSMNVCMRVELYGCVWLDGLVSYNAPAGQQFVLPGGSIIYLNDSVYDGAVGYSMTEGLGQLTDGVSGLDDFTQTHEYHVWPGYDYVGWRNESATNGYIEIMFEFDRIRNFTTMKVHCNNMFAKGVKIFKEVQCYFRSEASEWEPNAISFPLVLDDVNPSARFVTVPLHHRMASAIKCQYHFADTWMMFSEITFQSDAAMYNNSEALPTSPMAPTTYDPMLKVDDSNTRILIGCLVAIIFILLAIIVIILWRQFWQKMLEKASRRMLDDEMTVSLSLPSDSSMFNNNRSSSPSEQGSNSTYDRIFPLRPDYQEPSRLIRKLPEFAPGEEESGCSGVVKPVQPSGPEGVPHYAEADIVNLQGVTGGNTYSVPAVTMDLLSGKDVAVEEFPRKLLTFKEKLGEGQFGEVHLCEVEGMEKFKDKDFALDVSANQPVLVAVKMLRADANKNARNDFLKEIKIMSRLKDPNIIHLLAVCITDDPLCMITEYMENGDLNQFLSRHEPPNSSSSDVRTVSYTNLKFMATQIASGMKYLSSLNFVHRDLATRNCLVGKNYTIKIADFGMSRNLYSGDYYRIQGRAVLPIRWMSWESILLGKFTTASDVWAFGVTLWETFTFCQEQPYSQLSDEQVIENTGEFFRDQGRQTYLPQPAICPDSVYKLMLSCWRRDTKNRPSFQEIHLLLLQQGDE

JJN-3 = assay: JJN3 cell line Proliferation assay; assay type: functional, Homo sapiens; settings: time 3 day
MDA-MB-231 = assay: MDA-MB- 231 cell line Proliferation assay; assay type: functional, Homo sapiens; settings: time 3 day
[2] = molecular target: cAMP-dependent protein kinase catalytic subunit beta (Homo sapiens) (UniProt P22694); assay: PKAcβ(h) Eurofins kinase panel; settings: Compound concentration 1.0 uM
AMO1 = assay: AMO-1 cell line Proliferation assay; assay type: functional, Homo sapiens; settings: time 3 day
BXPC-3 = assay: BxPC3 cell line Proliferation assay; assay type: functional, Homo sapiens; settings: time 3 day
COLO 201 = assay: COLO 201, control cell line Proliferation assay; assay type: functional, Homo sapiens; settings: time 3 day
[3] = molecular target: T2, Serine/threonine-protein kinase tousled-like 1 (Homo sapiens) (UniProt Q9UKI8); assay: TLK1(h) Eurofins kinase panel; settings: Compound concentration 1.0 uM
T2 sequence (whole entry): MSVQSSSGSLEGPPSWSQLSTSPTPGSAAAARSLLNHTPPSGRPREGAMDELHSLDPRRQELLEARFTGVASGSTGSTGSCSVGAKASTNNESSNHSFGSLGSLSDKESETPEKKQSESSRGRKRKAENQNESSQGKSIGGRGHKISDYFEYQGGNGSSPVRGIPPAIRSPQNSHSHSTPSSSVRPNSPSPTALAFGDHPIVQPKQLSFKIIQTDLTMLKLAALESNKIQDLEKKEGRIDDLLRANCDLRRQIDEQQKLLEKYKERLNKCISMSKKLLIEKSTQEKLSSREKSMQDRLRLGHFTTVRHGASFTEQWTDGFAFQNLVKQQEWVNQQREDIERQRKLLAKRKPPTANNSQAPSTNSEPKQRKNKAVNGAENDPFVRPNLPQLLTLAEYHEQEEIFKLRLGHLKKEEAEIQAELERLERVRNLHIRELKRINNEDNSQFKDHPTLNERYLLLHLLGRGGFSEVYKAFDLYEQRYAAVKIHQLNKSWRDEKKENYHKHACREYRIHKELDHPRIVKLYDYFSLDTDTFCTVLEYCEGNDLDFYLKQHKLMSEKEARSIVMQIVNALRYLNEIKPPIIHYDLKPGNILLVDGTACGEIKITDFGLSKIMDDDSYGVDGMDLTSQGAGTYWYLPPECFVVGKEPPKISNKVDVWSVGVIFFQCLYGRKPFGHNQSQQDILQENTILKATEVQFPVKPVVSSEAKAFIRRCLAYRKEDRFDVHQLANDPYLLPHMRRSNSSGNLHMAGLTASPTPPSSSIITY

[4] = molecular target: Calcium/calmodulin-dependent protein kinase type 1 (Homo sapiens) (UniProt Q14012); assay: CaMKI(h) Eurofins kinase panel; settings: Compound concentration 1.0 uM
[5] = molecular target: T3, Dual specificity mitogen-activated protein kinase kinase 7 (Homo sapiens) (UniProt O14733); assay: MKK7beta(h) Eurofins kinase panel; settings: Compound concentration 1.0 uM
T3 sequence (whole entry): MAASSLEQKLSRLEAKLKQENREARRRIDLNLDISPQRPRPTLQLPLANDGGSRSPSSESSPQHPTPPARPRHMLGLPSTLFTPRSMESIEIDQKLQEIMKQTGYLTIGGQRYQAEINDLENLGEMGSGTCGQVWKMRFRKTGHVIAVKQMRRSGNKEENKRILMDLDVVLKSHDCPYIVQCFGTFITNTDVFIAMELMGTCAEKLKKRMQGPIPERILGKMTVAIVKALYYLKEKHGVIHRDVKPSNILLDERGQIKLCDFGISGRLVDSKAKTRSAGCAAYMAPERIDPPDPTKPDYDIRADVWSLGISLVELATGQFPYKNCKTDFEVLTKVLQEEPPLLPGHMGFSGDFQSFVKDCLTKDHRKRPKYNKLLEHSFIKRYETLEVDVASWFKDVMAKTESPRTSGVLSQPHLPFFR

[6] = molecular target: RAC-alpha serine/threonine-protein kinase (Homo sapiens) (UniProt P31749); assay: PKBalpha (h) Eurofins kinase panel; settings: Compound concentration 1.0 uM
[7] = molecular target: Serine/threonine-protein kinase 24 (Homo sapiens, UniProt Q9Y6E0); settings: Compound concentration 1.0 uM
[8] = molecular target: Calcium/calmodulin-dependent protein kinase type II subunit beta (Homo sapiens) (UniProt Q13554); assay: CaMKIIbeta(h) Eurofins kinase panel; settings: Compound concentration 1.0 uM
Rec1 = assay: REC-1 cell line Proliferation assay; assay type: functional, Homo sapiens; settings: time 3 day
[9] = molecular target: Serine/threonine-protein kinase 33 (Homo sapiens) (UniProt Q9BYT3); assay: STK33(h) Eurofins kinase panel; settings: Compound concentration 1.0 uM
[10] = molecular target: ALK tyrosine kinase receptor (Homo sapiens) (UniProt Q9UM73); assay: ALK(h) Eurofins kinase panel; settings: Compound concentration 1.0 uM
[11] = molecular target: Non-receptor tyrosine-protein kinase TYK2 (Homo sapiens) (UniProt P29597); assay: TYK2(h) Eurofins kinase panel; settings: Compound concentration 1.0 uM
[12] = molecular target: Protein-tyrosine kinase 2-beta (Homo sapiens) (UniProt Q14289); assay: Pyk2(h) Eurofins kinase panel; settings: Compound concentration 1.0 uM
[13] = molecular target: Casein kinase I isoform gamma-2 (Homo sapiens) (UniProt P78368); assay: CK1gamma2(h) Eurofins kinase panel; settings: Compound concentration 1.0 uM
[14] = molecular target: Serine-protein kinase ATM (Homo sapiens) (UniProt Q13315); assay: ATM(h) Eurofins kinase panel; settings: Compound concentration 1.0 uM
[15] = molecular target: Histamine H2 receptor (Homo sapiens) (UniProt P25021); settings: Compound concentration 10.0 uM
[16] = molecular target: Histamine H3 receptor (Homo sapiens) (UniProt Q9Y5N1); settings: Compound concentration 10.0 uM
Sequence of Histamine H3 receptor (Homo sapiens) (Q9Y5N1 whole entry): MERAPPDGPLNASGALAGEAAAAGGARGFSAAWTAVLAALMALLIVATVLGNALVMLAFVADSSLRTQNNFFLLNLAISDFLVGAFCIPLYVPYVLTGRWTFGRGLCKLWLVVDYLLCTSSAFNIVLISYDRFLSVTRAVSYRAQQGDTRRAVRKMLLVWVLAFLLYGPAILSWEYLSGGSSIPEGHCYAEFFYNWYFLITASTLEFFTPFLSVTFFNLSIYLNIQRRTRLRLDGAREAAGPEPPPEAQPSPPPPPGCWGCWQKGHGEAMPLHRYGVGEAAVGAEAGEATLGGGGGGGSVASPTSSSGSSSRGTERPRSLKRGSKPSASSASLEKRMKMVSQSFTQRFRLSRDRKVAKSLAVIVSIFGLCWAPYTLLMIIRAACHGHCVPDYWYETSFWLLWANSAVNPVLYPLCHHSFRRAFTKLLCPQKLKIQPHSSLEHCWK

Sequence of Histamine H2 receptor (Homo sapiens) (P25021 whole entry): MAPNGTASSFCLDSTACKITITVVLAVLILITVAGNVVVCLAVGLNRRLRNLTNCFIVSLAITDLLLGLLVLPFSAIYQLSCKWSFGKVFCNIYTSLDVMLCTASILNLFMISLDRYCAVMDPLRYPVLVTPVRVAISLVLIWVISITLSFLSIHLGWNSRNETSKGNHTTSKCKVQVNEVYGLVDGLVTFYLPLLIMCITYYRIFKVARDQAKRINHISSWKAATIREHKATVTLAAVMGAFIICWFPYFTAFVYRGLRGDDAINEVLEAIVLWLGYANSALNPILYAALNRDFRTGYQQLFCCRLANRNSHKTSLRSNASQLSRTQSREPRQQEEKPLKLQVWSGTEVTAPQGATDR
Sequence of ALK tyrosine kinase receptor (Homo sapiens) (Q9UM73 19-1620 limits assumed): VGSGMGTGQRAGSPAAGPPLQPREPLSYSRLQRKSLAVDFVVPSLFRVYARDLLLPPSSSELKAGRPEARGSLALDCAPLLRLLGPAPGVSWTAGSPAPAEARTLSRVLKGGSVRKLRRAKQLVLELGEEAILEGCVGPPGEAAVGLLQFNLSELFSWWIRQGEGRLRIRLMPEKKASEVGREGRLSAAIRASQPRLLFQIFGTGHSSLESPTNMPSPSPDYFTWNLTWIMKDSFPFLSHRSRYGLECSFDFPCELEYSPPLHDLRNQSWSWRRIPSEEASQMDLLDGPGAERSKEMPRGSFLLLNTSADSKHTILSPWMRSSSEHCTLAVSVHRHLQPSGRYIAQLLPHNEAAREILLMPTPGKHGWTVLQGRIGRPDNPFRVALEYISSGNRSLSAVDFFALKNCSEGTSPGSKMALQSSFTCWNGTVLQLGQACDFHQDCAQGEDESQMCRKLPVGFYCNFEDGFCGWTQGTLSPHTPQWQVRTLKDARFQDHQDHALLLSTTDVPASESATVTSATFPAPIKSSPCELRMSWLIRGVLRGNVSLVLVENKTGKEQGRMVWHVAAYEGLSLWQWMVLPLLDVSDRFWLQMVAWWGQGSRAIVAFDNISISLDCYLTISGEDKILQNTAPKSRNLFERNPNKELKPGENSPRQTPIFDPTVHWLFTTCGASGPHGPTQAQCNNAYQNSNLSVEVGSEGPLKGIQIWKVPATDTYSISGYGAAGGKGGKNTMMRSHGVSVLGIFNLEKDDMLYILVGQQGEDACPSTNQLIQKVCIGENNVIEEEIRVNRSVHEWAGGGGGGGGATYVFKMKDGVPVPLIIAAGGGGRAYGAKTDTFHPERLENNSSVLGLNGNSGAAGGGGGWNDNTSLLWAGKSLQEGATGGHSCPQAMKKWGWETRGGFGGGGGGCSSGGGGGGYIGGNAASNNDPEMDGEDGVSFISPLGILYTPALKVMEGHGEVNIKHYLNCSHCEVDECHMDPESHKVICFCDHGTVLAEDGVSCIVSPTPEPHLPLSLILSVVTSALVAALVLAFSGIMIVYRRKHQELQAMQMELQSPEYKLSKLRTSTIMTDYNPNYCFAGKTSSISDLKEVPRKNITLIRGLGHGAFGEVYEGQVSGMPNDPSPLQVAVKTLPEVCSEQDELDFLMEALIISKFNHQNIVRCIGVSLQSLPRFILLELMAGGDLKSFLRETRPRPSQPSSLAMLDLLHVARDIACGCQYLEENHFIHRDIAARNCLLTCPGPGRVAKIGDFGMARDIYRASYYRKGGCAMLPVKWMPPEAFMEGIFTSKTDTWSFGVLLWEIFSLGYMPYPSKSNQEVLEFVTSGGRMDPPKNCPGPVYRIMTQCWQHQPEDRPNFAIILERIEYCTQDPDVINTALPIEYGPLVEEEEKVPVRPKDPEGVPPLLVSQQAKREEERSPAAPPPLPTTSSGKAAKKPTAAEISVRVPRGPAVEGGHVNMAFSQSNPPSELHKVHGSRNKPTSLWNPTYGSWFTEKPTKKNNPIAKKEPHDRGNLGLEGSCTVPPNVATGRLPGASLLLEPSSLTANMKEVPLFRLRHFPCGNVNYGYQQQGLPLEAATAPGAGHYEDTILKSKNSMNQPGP
Sequence of Non-receptor tyrosine-protein kinase TYK2 (Homo sapiens) (P29597 whole entry): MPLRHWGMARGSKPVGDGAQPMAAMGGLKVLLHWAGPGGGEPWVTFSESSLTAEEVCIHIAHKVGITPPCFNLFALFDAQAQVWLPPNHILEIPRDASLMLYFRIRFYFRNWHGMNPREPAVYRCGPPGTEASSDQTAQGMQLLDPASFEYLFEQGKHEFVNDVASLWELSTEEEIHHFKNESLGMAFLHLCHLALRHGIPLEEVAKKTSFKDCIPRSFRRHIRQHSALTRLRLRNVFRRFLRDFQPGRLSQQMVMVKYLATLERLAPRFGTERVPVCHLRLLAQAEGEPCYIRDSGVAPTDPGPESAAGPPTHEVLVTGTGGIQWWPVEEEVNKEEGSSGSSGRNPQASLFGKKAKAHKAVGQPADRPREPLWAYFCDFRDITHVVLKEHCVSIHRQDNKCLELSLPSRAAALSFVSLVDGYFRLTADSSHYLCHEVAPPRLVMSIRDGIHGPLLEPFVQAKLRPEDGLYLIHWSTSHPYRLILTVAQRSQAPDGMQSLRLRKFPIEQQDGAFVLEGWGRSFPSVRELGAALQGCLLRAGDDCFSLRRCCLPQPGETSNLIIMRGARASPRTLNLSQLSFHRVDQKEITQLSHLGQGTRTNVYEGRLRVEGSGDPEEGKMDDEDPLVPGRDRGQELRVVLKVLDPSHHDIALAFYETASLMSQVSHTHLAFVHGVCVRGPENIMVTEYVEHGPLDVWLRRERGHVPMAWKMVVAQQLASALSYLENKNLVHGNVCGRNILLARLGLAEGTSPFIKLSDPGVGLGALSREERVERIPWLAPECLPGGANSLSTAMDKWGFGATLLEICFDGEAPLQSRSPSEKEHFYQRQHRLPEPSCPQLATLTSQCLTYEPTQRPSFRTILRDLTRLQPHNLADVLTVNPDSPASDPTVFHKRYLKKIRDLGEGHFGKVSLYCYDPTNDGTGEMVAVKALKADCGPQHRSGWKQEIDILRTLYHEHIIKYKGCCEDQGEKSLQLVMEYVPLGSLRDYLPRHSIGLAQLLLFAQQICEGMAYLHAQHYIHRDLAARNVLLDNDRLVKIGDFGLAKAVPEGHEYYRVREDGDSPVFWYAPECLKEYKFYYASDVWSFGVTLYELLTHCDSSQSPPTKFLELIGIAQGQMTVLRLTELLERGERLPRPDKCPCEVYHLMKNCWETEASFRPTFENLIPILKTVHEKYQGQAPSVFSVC
Sequence of RAC-alpha serine/threonine-protein kinase (Homo sapiens) (P31749 whole entry): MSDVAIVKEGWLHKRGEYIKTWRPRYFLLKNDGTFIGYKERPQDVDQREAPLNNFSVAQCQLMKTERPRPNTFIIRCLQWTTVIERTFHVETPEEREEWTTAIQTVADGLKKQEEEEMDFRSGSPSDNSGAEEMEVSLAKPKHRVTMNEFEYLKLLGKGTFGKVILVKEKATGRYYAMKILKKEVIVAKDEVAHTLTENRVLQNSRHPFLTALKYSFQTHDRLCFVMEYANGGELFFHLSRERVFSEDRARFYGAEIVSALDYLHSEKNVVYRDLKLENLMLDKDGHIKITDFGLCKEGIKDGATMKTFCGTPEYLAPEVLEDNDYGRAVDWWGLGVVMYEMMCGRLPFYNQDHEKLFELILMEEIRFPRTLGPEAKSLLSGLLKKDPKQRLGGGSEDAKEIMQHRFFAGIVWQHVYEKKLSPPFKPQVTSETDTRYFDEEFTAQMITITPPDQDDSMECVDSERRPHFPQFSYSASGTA
Sequence of Calcium/calmodulin-dependent protein kinase type II subunit beta (Homo sapiens) (Q13554 whole entry): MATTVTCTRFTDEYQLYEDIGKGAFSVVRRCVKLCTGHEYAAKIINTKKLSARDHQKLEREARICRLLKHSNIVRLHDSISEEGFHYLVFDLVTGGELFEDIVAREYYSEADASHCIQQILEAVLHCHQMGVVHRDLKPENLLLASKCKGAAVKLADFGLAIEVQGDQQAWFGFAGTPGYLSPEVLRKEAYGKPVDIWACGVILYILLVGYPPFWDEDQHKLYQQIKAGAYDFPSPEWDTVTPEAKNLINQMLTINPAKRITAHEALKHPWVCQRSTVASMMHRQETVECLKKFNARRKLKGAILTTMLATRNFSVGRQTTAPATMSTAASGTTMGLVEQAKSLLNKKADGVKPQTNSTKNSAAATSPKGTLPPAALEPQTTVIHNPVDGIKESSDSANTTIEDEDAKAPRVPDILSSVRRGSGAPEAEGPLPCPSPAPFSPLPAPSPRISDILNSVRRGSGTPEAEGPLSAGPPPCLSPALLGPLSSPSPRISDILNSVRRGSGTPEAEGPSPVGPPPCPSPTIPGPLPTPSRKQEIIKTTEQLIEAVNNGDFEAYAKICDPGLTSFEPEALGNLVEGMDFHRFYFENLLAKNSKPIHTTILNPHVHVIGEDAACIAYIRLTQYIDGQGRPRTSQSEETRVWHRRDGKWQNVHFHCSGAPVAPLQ

## CCc1ccccc1C(=O)Nc1n[nH]c2c(C)c(F)c(C3C(C#N)=C(C)N(C)C(C)=C3C#N)cc12 [BAY-3827]
[1]
  % residual kinase activity: 92%
JJN-3
  Cell Proliferation IC50: >20 µM
MDA-MB-231
  Cell Proliferation IC50: >30 µM
[2]
  % residual kinase activity: 90%
AMO1
  Cell Proliferation IC50: >33 µM
BXPC-3
  Cell Proliferation IC50: 11.4 µM
COLO 201
  Cell Proliferation IC50: 16 µM
[3]
  % residual kinase activity: 103%
[4]
  % residual kinase activity: 93%
[5]
  % residual kinase activity: 103%
[6]
  % residual kinase activity: 91%
[7]
  % residual kinase activity: 17%
[8]
  % residual kinase activity: 100%
Rec1
  Cell Proliferation IC50: 3.3 µM
[9]
  % residual kinase activity: 55%
[10]
  % residual kinase activity: 103%
[11]
  % residual kinase activity: 87%
[12]
  % residual kinase activity: 76%
[13]
  % residual kinase activity: 98%
[14]
  % residual kinase activity: 99%

## CC1=C(C#N)C(c2ccc3c(c2)c(NC(=O)c2ccccc2C)nn3C)C(C#N)=C(C)N1 [BAY-974]
[15]
  inhibition: 8.7%
[16]
  inhibition: 1.89%
